Experimental data taken from article PMC2797576 (Biochemistry, 2009).
Marks after values point to notes of the source that are not given here.

What was measured:
W139F-E360W PGDH [1] = biological target: T1, W139F-E360W PGDH (Escherichia coli, UniProt P0A9T0, E360W/W139F); experiment: Steady-state serine binding by tryptophan fluorescence quenching titration; parameters: species or system E. coli; details: 2.5 μM enzyme subunits, fit to Hill equation (eq 11)
W139F-E360W PGDH [2] = biological target: T1, W139F-E360W PGDH; experiment: Stopped-flow transient kinetics of L-serine binding; parameters: species or system E. coli; details: for k3: estimated from Figure 9; for k2: forward rate constant of conformational change after binding; for k−3: reverse rate constant of conformational change before binding
[3] = biological target: E. coli PGDH (native, free of bound NADH) (Escherichia coli, UniProt P0A9T0); experiment: Pre-steady-state stopped-flow analysis of NADH binding; details: saturating L-serine versus serine absent
[4] = biological target: E. coli D-3-phosphoglycerate dehydrogenase (PGDH), native enzyme (Escherichia coli, UniProt P0A9T0); experiment: Steady-state inhibition of enzymatic activity of native PGDH by L-serine; type: biochemical
W139F-E360W PGDH [5] = biological target: T1, W139F-E360W PGDH; experiment: Steady-state inhibition of enzymatic activity of W139F-E360W PGDH by L-serine; type: biochemical, E. coli; details: W139F-E360W mutant

N[C@@H](CO)C(=O)O [L-serine]
K0.5 for fluorescence quenching (W139F-E360W PGDH [1]): 13.6 ± 0.5
k3 (W139F-E360W PGDH [2]; kobs1, printed >0–20): (>0–20 s^−1) ^b
k2 (W139F-E360W PGDH [2]; kobs1): 61 ± 4 s⁻¹
k−3 (W139F-E360W PGDH [2]; kobs1): 88 ± 7 s⁻¹
k3 (W139F-E360W PGDH [2]; kobs2, printed >0–2): (>0–2 s^−1) ^b
k2 (W139F-E360W PGDH [2]; kobs2): 161 ± 18 s⁻¹
k−3 (W139F-E360W PGDH [2]; kobs2): 166 ± 22 s⁻¹
Increase in the Kd for NADH binding caused by serine, first set of sites [3]: 15 fold
Increase in the Kd for NADH binding caused by serine, other set of sites [3]: 5 fold
Hill coefficient for inhibition of enzymatic activity [4]: 1.9 ± 0.1
Hill coefficient for inhibition of enzymatic activity (W139F-E360W PGDH [5]): 2.2 ± 0.1
